Experimental data reported in US8030300B2, “Ligands for nicotinic acetylcholine receptors, and methods of making and using them” (priority 2003, dated 2011).
Like-named read-outs stand apart in the source and are kept apart here.

What was measured:
Assay type in all cases: binding
[1] = target: T1, receptors in rat forebrain (mainly α4β2) (Rattus norvegicus, UniProt P09483+P12390); conditions: Table 6, [3H]-EB 0.099 nM, 0.091 nM, n = 1
T1 construct: from tissue; host or cells: rat forebrain homogenate

[2] = target: T1, receptors in rat forebrain (mainly α4β2); test: biochemical
[3] = target: T2, α3β4 nAChR subtype (Rattus norvegicus, UniProt P04757+P12392); test: biochemical
T2 construct: expressed in transfected cells
Source text: (§1) In order to assess the steric and hydropathic effects of the C-5 substituents of the pyridine on the binding affinity and subtype-selectivity at neuronal nicotinic acetylcholine receptors. […] The binding affinity ratios for a ligand, calculated from its affinities at an α subunit paired with either the β2 osubunit or the β4 subunit, represents a measure of the selectivity of that ligand with regard to the β subunits.

[4] = target: T3, α3β2 nAChR subtype (Rattus norvegicus, UniProt P04757+P12390); test: biochemical
T3 construct: expressed in transfected cells
Source text: as §1

[5] = target: T4, α4β4 nAChR subtype (Rattus norvegicus, UniProt P09483+P12392); test: biochemical
T4 construct: expressed in transfected cells
Source text: as §1

[6] = target: T5, α2β4 nAChR subtype (Rattus norvegicus, UniProt P12389+P12392); test: biochemical
T5 construct: expressed in transfected cells
Source text: as §1

[7] = target: T6, α2β2 nAChR subtype (Rattus norvegicus, UniProt P12389+P12390); test: biochemical
T6 construct: expressed in transfected cells
Source text: as §1

[8] = target: T7, α4β2 nAChR subtype (Rattus norvegicus, UniProt P09483+P12390); test: biochemical
T7 construct: expressed in transfected cells
Source text: as §1

[9] = Table 5, *Rat forebrain, mainly α4β2, read-out: Ki α4β2*
[10] = Table 5, rat nAChR subtypes, read-out: Ki α3β4
[11] = Table 6, [3H]-EB 0.099 nM, 0.091 nM, ligand 0.00197-100 μM, n = 1, read-out: Ki α3β4
[12] = Table 5, rat nAChR subtypes, read-out: Ki α3β2
[13] = Table 6, [3H]-EB 0.099 nM, 0.091 nM, ligand 0.00197-100 μM, n = 1, read-out: Ki α3β2
[14] = Table 5, rat nAChR subtypes, read-out: Ki α4β4
[15] = Table 6, [3H]-EB 0.099 nM, 0.091 nM, ligand 0.00197-100 μM, n = 1, read-out: Ki α4β4
[16] = Table 5, rat nAChR subtypes, read-out: Ki α2β4
[17] = Table 6, [3H]-EB 0.099 nM, 0.091 nM, ligand 0.00197-100 μM, n = 1, read-out: Ki α2β4
[18] = Table 5, rat nAChR subtypes, read-out: Ki α2β2
[19] = Table 6, [3H]-EB 0.099 nM, 0.091 nM, ligand 0.00197-100 μM, n = 1, read-out: Ki α2β2
[20] = Table 5, rat nAChR subtypes, read-out: Ki α4β2
[21] = Table 6, [3H]-EB 0.099 nM, 0.091 nM, ligand 0.00197-100 μM, n = 1, read-out: Ki α4β2
[22] = Ki α4β2*, Table 5, *Rat forebrain, mainly α4β2
[23] = Ki α3β4, Table 5, rat nAChR subtypes
[24] = Ki α3β2, Table 5, rat nAChR subtypes
[25] = Ki α4β4, Table 5, rat nAChR subtypes
[26] = Ki α2β4, Table 5, rat nAChR subtypes
[27] = Ki α2β2, Table 5, rat nAChR subtypes
[28] = Ki α4β2, Table 5, rat nAChR subtypes

T4 sequence (P12392 21-495): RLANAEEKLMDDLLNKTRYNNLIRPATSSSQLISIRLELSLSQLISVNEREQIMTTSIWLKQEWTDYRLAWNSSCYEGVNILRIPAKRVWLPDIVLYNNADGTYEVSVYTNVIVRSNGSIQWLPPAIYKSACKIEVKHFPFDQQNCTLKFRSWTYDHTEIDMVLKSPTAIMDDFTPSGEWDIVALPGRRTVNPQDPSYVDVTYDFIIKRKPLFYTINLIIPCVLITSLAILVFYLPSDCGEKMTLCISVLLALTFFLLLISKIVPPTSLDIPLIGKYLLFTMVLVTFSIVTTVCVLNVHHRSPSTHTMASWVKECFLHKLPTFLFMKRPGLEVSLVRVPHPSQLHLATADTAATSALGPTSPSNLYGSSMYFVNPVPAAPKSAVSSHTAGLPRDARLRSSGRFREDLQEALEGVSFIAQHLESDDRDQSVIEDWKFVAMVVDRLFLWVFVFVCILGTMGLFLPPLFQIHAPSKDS
T4 sequence (P09483 31-630): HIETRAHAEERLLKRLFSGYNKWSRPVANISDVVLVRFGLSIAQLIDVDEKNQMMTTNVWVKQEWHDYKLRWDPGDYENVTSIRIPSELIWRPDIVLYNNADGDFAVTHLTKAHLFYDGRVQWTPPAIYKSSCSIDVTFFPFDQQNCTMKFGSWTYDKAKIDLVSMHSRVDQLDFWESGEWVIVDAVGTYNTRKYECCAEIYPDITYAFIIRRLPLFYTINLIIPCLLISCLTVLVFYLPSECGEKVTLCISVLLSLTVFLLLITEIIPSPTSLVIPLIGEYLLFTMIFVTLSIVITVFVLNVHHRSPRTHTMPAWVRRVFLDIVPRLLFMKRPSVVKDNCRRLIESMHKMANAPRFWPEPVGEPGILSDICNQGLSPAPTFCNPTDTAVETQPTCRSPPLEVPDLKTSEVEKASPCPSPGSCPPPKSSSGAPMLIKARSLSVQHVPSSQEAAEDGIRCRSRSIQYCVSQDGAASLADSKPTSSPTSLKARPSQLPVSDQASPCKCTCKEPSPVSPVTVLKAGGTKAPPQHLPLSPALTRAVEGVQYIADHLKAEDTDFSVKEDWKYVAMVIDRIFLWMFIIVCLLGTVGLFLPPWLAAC
T5 sequence (P12389 28-511): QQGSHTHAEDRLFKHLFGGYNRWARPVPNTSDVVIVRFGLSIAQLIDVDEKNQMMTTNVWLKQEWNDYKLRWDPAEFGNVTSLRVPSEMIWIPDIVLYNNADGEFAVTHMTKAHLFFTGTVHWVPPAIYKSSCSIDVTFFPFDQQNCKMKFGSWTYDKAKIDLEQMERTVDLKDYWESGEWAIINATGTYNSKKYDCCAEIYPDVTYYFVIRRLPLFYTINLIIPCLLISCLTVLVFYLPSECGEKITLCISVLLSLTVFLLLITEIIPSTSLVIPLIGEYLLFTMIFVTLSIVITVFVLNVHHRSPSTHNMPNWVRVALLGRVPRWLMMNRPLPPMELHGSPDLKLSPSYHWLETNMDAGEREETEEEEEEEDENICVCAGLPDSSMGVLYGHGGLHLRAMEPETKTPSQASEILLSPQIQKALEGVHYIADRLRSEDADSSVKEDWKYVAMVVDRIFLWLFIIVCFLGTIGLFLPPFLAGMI
T5 sequence (P12392 21-495): as the sequence (P12392 21-495) above
T6 sequence (P12390 25-500): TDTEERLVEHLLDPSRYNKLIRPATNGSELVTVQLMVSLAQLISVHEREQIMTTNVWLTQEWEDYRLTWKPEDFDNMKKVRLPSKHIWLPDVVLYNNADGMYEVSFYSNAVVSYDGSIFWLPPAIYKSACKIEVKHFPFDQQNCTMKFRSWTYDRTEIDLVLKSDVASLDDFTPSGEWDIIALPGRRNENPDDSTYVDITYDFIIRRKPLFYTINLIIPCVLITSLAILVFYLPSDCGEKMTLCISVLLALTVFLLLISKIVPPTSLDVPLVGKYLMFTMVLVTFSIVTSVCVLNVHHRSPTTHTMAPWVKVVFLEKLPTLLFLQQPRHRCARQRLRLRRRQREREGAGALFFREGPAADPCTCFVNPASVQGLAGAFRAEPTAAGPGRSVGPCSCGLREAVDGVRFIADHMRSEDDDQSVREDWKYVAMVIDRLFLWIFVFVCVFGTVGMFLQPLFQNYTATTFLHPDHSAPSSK
T6 sequence (P12389 28-511): as the sequence (P12389 28-511) above
T7 sequence (P12390 25-500): as the sequence (P12390 25-500) above
T7 sequence (P09483 31-630): as the sequence (P09483 31-630) above
T3 sequence (P12390 25-500): as the sequence (P12390 25-500) above
T3 sequence (P04757 26-499): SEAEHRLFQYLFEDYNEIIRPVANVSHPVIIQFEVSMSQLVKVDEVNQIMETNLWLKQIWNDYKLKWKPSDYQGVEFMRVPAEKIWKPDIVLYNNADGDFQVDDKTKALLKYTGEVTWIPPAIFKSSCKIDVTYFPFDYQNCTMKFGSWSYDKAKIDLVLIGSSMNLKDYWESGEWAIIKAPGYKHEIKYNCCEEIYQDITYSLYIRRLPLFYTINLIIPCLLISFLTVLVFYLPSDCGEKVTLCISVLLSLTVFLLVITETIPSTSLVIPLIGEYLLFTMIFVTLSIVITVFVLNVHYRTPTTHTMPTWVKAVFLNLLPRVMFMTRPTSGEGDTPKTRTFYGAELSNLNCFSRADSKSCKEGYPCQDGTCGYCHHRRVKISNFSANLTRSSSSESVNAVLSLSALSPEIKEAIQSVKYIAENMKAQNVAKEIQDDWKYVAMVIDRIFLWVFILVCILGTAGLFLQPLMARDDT
T2 sequence (P04757 26-499): as above
T2 sequence (P12392 21-495): as the sequence (P12392 21-495) above
T1 sequence (P09483 31-630): as the sequence (P09483 31-630) above
T1 sequence (P12390 25-500): as the sequence (P12390 25-500) above

## CN1CCC[C@H]1COc1cncc(C#CC(C)(C)O)c1 [Ligand 15, 5-(3-Hydroxy-3-methyl-1-butynyl)-3-(1-methyl-2(S)pyrrolidinylmethoxy)pyridine]
[1]
  Ki: 8.39 nM
[2]; [9]
  Ki: 8.39 nM
[3]; [10]
  Ki: 32600 nM
[3]; [11]
  Ki: 32600 nM
[4]; [12]
  Ki: 19.7 nM
[4]; [13]
  Ki: 19.7 nM
[5]; [14]
  Ki: 5060 nM
[5]; [15]
  Ki: 5060 nM
[6]; [16]
  Ki: 5890 nM
[6]; [17]
  Ki: 5890 nM
[7]; [18]
  Ki: 1.93 nM
[7]; [19]
  Ki: 1.93 nM
[8]; [20]
  Ki: 1.34 nM
[8]; [21]
  Ki: 1.34 nM

## CN1CCC[C@H]1COc1cncc(C#CCO)c1 [Ligand 14, 5-(3-Hydroxy-1-propargyl)-3-(1-methyl-2(S)-pyrrolidinylmethoxy)pyridine]
[1]
  Ki: 3.16 nM
[2]; [9]
  Ki: 3.16 nM
[3]; [10]
  Ki: 18200 nM
[3]; [11]
  Ki: 18200 nM
[4]; [12]
  Ki: 7.64 nM
[4]; [13]
  Ki: 7.64 nM
[5]; [14]
  Ki: 1690 nM
[5]; [15]
  Ki: 1690 nM
[6]; [16]
  Ki: 1880 nM
[6]; [17]
  Ki: 1880 nM
[7]; [18]
  Ki: 2.43 nM
[7]; [19]
  Ki: 2.43 nM
[8]; [20]
  Ki: 0.954 nM
[8]; [21]
  Ki: 0.954 nM

## CN1CCC[C@H]1COc1cncc(CCCCCCO)c1 [Ligand 19, 5-(6-Hydroxy-1-hexanyl)-3-(1-methyl-2(S) -pyrrolidinylmethoxy)pyridine]
[1]
  Ki: 5.39 nM
[2]; [9]
  Ki: 5.39 nM
[3]; [10]
  Ki: 20000 nM
[3]; [11]
  Ki: 20000 nM
[4]; [12]
  Ki: 13.4 nM
[4]; [13]
  Ki: 13.4 nM
[5]; [14]
  Ki: 968 nM
[5]; [15]
  Ki: 968 nM
[6]; [16]
  Ki: 1150 nM
[6]; [17]
  Ki: 1150 nM
[7]; [18]
  Ki: 3.33 nM
[7]; [19]
  Ki: 3.33 nM
[8]; [20]
  Ki: 0.75 nM
[8]; [21]
  Ki: 0.754 nM

## CN1CCC[C@H]1COc1cncc(C#CCCCCO)c1 [Ligand 16, 5-(6-Hydroxy-1-hexynyl)-3-(1-methyl-2(S) -pyrrolidinylmethoxy)pyridine]
[1]
  Ki: 3.56 nM
[2]; [9]
  Ki: 3.56 nM
[3]; [10]
  Ki: 40200 nM
[3]; [11]
  Ki: 40200 nM
[4]; [12]
  Ki: 12.6 nM
[4]; [13]
  Ki: 12.6 nM
[5]; [14]
  Ki: 1270 nM
[5]; [15]
  Ki: 1270 nM
[6]; [16]
  Ki: 3230 nM
[6]; [17]
  Ki: 3230 nM
[7]; [18]
  Ki: 2.87 nM
[7]; [19]
  Ki: 2.87 nM
[8]; [20]
  Ki: 0.81 nM
[8]; [21]
  Ki: 0.81 nM

## CN1CCC[C@H]1COc1cncc(C#CCCCCCCCCO)c1 [Ligand 17, 5-(10-Hydroxy-1-decynyl)-3-(1-methyl-2(S) -pyrrolidinylmethoxy)pyridine]
[1]
  Ki: 21.7 nM
[2]; [9]
  Ki: 21.7 nM
[3]; [10]
  Ki: 62700 nM
[3]; [11]
  Ki: 62700 nM
[4]; [12]
  Ki: 52.1 nM
[4]; [13]
  Ki: 52.1 nM
[5]; [14]
  Ki: 3560 nM
[5]; [15]
  Ki: 3560 nM
[6]; [16]
  Ki: 7800 nM
[6]; [17]
  Ki: 7800 nM
[7]; [18]
  Ki: 26.8 nM
[7]; [19]
  Ki: 26.8 nM
[8]; [20]
  Ki: 6.5 nM
[8]; [21]
  Ki: 6.5 nM

## OC1C2CCC(N2)C1c1ccc(Cl)nc1 (single isomer, unassigned) [Ligand 2]
[2]; [22]
  Ki: 2060 nM
[3]; [23]
  Ki: 1170 nM
[4]; [24]
  Ki: 1130 nM
[5]; [25]
  Ki: 515 nM
[6]; [26]
  Ki: 617 nM
[7]; [27]
  Ki: 814 nM
[8]; [28]
  Ki: 2370 nM

## FCCCCC#Cc1cncc(OC[C@@H]2CCCN2)c1 [Ligand 42, 5-(6-Fluoro-1-hexynyl)-3-(2(S)-pyrrolidinylmethoxy)pyridine]
[2]; [22]
  Ki: 3.45 nM
[3]; [23]
  Ki: 7580 nM
[4]; [24]
  Ki: 5.27 nM
[5]; [25]
  Ki: 721 nM
[6]; [26]
  Ki: 680 nM
[7]; [27]
  Ki: 3.5 nM
[8]; [28]
  Ki: 0.907 nM

## CN1CCC[C@H]1COc1cncc(C#CCNC(=O)OC(C)(C)C)c1 [Ligand 13]
[2]
  Ki: 3.71 nM
[3]
  Ki: 59900 nM
[4]
  Ki: 7.27 nM
[5]
  Ki: 8280 nM
[6]
  Ki: 8240 nM
[7]
  Ki: 1.19 nM
[8]
  Ki: 2.07 nM

## CN1CCC[C@H]1COc1cncc(C#CCCCCO)c1 [Ligand 16]
[2]
  Ki: 3.56 nM
[3]
  Ki: 40200 nM
[4]
  Ki: 12.6 nM
[5]
  Ki: 1270 nM
[6]
  Ki: 3230 nM
[7]
  Ki: 2.87 nM
[8]
  Ki: 0.81 nM

## OC1CC2NC1CC2c1ccc(Cl)nc1 (stereo not drawn) [Ligand 7, 2-exo-(2-Chloro-5-pyridyl)-5-endo-hydroxyl-7-azabicyclo[2.2.1]heptane]
[2]; [22]
  Ki: 134 nM
[3]; [23]
  Ki: 916 nM
[4]; [24]
  Ki: 285 nM
[5]; [25]
  Ki: 247 nM
[6]; [26]
  Ki: 238 nM
[7]; [27]
  Ki: 93.7 nM
[8]; [28]
  Ki: 70.9 nM

## C#Cc1cncc(OC[C@@H]2CCCN2C)c1 [Ligand 18, 5-(1-Ethynyl)-3-(1-methyl-2(S)-pyrrolidinylmethoxy)pyridine]
[1]
  Ki: 3.65 nM
[2]; [9]
  Ki: 3.65 nM
[3]; [10]
  Ki: 3080 nM
[3]; [11]
  Ki: 3080 nM
[4]; [12]
  Ki: 10.7 nM
[4]; [13]
  Ki: 10.7 nM
[5]; [14]
  Ki: 473 nM
[5]; [15]
  Ki: 473 nM
[6]; [16]
  Ki: 434 nM
[6]; [17]
  Ki: 434 nM
[7]; [18]
  Ki: 0.75 nM
[7]; [19]
  Ki: 0.749 nM
[8]; [20]
  Ki: 1.02 nM
[8]; [21]
  Ki: 1.02 nM

## O=c1cccc2n1C[C@H]1C[C@@H]2CN(CCCCCN2C[C@@H]3C[C@H](C2)c2cccc(=O)n2C3)C1 [ZW-19]
[2]
  Ki: 603 nM
[3]
  Ki: > 10000 nM
[4]
  Ki: > 1000 nM
[5]
  Ki: 468 nM
[6]
  Ki: 1430 nM
[7]
  Ki: 240 nM
[8]
  Ki: 383 nM

## FC1CC2NC1CC2c1ccc(Cl)nc1 (stereo not drawn) [Ligand 10, 2-exo-(2-Chloro-5-pyridyl)-5-exo-fluoro-7-azabicyclo[2.2.1]heptane]
[2]; [22]
  Ki: 2.11 nM
[3]; [23]
  Ki: 10.4 nM
[4]; [24]
  Ki: 0.646 nM
[5]; [25]
  Ki: 1.23 nM
[6]; [26]
  Ki: 5.59 nM
[7]; [27]
  Ki: 0.864 nM
[8]; [28]
  Ki: 1.73 nM

## O=C1CC2NC1CC2c1ccc(Cl)nc1 (stereo not drawn) [Ligand 4, 2-exo-(2-Chloro-5-pyridyl)-7-azabicyclo[2.2.1]heptan-5-one]
[2]; [22]
  Ki: 4570 nM
[3]; [23]
  Ki: 4430 nM
[4]; [24]
  Ki: 1890 nM
[5]; [25]
  Ki: 3240 nM
[6]; [26]
  Ki: 1140 nM
[7]; [27]
  Ki: 642 nM
[8]; [28]
  Ki: 7080 nM

## FCCCCC#Cc1cncc(OC[C@@H]2CCN2)c1 [Ligand 41, 5-(6-Fluoro-1-hexynyl)-3-(2(S)-azetidinylmethoxy)pyridine]
[2]; [22]
  Ki: 0.362 nM
[3]; [23]
  Ki: 5490 nM
[4]; [24]
  Ki: 0.635 nM
[5]; [25]
  Ki: 118 nM
[6]; [26]
  Ki: 197 nM
[7]; [27]
  Ki: 0.796 nM
[8]; [28]
  Ki: 0.201 nM

## CCCCCc1cncc(C2CC3CCC2N3)c1 (stereo not shown) [ZW-95]
[2]; [22]
  Ki: 0.314 nM
[3]; [23]
  Ki: 122 nM
[4]; [24]
  Ki: 0.165 nM
[5]; [25]
  Ki: 7.91 nM
[6]; [26]
  Ki: 24.9 nM
[7]; [27]
  Ki: 0.323 nM
[8]; [28]
  Ki: 0.151 nM
